Data on one compound can be found in publication PMC4665511, “An Improved Neutral α-Glucosidase Assay for Assessment of Epididymal Function—Validation and Comparison to the WHO Method” (Diagnostics, 2014).

The subject of this assay is T1, Neutral α-glucosidase (NAG).
T1 construct: gene MGAM; native, unpurified enzyme in human seminal plasma
The experiment in a line: spectrophotometric PNP release at […] nm, Michaelis-Menten. It counts as biochemical, Homo sapiens. Conditions: seminal plasma, not purified; average of semen samples (n = 13 in methods); adapted proprietary buffer with SDS, pH 6.8, 37 °C.

Each structure is given as a SMILES string.

On to `O=[N+]([O-])c1ccc(O[C@H]2O[C@H](CO)[C@@H](O)[C@H](O)[C@H]2O)cc1` [para-nitrophenyl-α-D-glucopyranoside], for which the Km (usually the concentration of substrate that gives half-maximal velocity) was determined as 4.6 ± 0.63 mM.
